As usually defined, the Ki is a dissociation constant, usually derived from enzyme kinetics or from competition with a known ligand.

Each structure is given as a SMILES string.

In one assay the target is T1, human D3 receptor (Homo sapiens, UniProt P35462).
T1 construct: (Natick, Mass., USA); host or cells: CCL 1.3 mouse fibroblasts
As to the kind of experiment: D3 binding assay (125I-iodosulpiride, cloned human D3 receptor-expressing CCL 1.3 mouse fibroblasts). The conditions noted are these: for Ki: 0.1 nM 125 iodosulpiride, 60 min, 30° C., read-out: Receptor binding D3 125I-sulpiride Ki; for Selectivity Ki D2 /Ki D3: ratio D2 (3H-spiperone) to D3 (125I-sulpiride). The procedure:
Cloned human D3 receptor-expressing CCL 1.3 mouse fibroblasts obtained from Res. Biochemicals Internat. One Strathmore Rd., Natick, Mass. 01760-2418 USA, were used for the binding studies.
The D3 -expressing cells were grown in RPMI-1640 containing 10% fetal calf serum (GIBCO No. 041-32400 N); 100 U/ml penicillin and 0.2% streptomycin (GIBCO BRL, Gaithersburg, Md., USA). After 48 h, the cells were washed with PBS and incubated with 0.05% trypsin-containing PBS for 5 min. Neutralization with medium was then carried out, and the cells were collected by centrifugation at 300×g. To lyze the cells, the pellet was briefly washed with lysis buffer (5 mM tris-HCl, pH 7.4, with 10% glycerol) and then incubated in a concentration of 10^7 cells/ml of lysis buffer at 4° C. for 30 min. The cells were centrifuged at 200×g for 10 min and the pellet was stored in liquid nitrogen.
For the D3 receptor-binding assay, the membranes were suspended in incubation buffer (50 mM tris-HCl, pH 7.4, with 120 mM NaCl, 5 mM KCl, 2 mM CaCl2, 2mM MgCl2, 10 μM quinolinol, 0.1% ascorbic acid and 0.1% BSA) in a concentration of about 10^6 cells/250 μl of assay mixture and incubated at 30° C. with 0.1 nM ^125 iodosulpiride in the presence and absence of test substance. The non-specific binding was determined using 10^-6 M spiperone.
After 60 min, the free and the bound radioligand was separated by filtration through GF/B glass fiber filters (Whatman, England) on a Skatron cell collector (Skatron, Lier, Norway), and the filters were washed with ice-cold tris-HCl buffer, pH 7.4. The radioactivity collected on the filters was quantified using a Packard 2200 CA liquid scintillation counter.
The Ki values were determined by non-linear regression analysis using the LIGAND program.

In the next assay the target is T2, D2 receptor (Bos taurus, UniProt P20288).
T2 construct: Nucleus caudatus was removed from bovine brain; from tissue; host or cells: bovine nucleus caudatus membranes
The assay can be described thus: D2 binding assay (3H-spiperone, D2low, bovine nucleus caudatus membranes). Particulars: 0.2 nmol/l 3H-spiperone (D2low), 25° C., 60 min. Here is the method: a) Nucleus caudatus (bovine)
Nucleus caudatus was removed from bovine brain and washed with ice-cold 0.32 M sucrose solution. After determination of the weight, the material was comminuted and homogenized in 5-10 volumes of sucrose solution using a Potter-Evehjem [sic] homogenizer (500 rpm). The homogenate was centrifuged at 3,000×g for 15 minutes (4° C.), and the resulting supernatant was subjected to another 15-minute centrifugation at 40,000×g. The residue was then washed twice, by resuspension and centrifugation, with 50 mM tris-HCl, pH 7.4. The membranes were stored in liquid nitrogen until used.
a) ^3 H-Spiperone (D2low)
Nucleus caudatus membranes were taken up in incubation buffer (mM: tris-HCl 50, NaCl 120, KCl 5, MgCl2 1, CaCl2 2, pH 7.4). Various mixtures, each of 1 ml, were prepared:
Total binding: 400 μg of membranes+0.2 nmol/l ^3 H-spiperone (Du Pont de Nemours, NET-565).
Non-specific binding: as mixtures for total binding+10 μM (+)-butaclamol.
Test substance: as mixtures for total binding+increasing concentrations of test substance.
After incubation at 25° C. for 60 minutes, the mixtures were filtered through GF/B glass fibre filters (Whatman, England) on a Skatron cell collector (from Zinsser, Frankfurt), and the filters were washed with ice-cold 50 mM tris-HCl buffer, pH 7.4. The radioactivity collected on the filters was quantified using a Packard 2200 CA liquid scintillation counter.
The Ki values were determined by non-linear regression analysis using the LIGAND program or by conversion of the IC50 values using the formula of Cheng and Prusoff.

T1 sequence (P35462 whole entry): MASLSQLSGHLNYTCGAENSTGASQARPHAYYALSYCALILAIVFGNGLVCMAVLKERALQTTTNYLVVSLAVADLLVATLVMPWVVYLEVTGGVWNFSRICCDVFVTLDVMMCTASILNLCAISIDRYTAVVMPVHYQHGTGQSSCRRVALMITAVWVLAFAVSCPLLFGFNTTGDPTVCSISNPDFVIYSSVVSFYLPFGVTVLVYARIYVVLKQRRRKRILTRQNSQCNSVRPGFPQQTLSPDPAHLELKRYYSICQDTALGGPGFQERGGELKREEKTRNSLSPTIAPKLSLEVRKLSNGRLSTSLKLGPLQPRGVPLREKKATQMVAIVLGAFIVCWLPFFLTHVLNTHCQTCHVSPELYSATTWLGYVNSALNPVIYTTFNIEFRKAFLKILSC
T2 sequence (P20288 whole entry): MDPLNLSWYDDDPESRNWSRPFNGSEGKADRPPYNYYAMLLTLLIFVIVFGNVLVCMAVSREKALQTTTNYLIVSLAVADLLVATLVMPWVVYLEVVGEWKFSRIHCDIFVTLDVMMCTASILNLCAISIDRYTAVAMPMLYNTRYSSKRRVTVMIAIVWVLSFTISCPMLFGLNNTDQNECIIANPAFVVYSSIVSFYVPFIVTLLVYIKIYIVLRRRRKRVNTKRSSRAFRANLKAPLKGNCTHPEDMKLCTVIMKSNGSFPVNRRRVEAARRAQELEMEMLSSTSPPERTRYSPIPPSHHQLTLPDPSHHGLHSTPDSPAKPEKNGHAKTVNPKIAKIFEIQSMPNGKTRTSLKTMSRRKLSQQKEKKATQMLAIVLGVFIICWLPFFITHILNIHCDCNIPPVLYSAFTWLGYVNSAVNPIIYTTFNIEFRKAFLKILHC

Take `Nc1nnc(CCCCCCN2CCN(c3cccc(C(F)(F)F)c3)CC2)s1` [Example 2]: the Ki on human D3 receptor was determined as 1.4 nM; at D2 receptor it was 65 nM. At human D3 receptor, the “Selectivity Ki D2 /Ki D3” value is given as 46.

For `Nc1nnc(SCCCN2CCN(c3cc(Cl)cc(Cl)c3)CC2)s1` [Example 13], the Ki was 0.6 nM at human D3 receptor and 25 nM at D2 receptor. Moreover, on human D3 receptor, the “Selectivity Ki D2 /Ki D3” value is 41.

`CC(CSc1nnc(N)s1)CN1CCN(c2cccc(C(F)(F)F)c2)CC1` (stereo not drawn) [Example 16]: on human D3 receptor, the Ki amounted to 10.9 nM and the “Selectivity Ki D2 /Ki D3” value amounted to 36. This compound came in with a Ki at D2 receptor of 402 nM.

`Nc1nnc(SCCCN2CCN(c3cccc(C(F)(F)F)n3)CC2)s1` [Example 23]: on human D3 receptor, the inhibition constant Ki is 6.3 nM and the “Selectivity Ki D2 /Ki D3” value came to 31. This compound also returned a Ki at D2 receptor of 200 nM.

Consider `CC(C)c1cccc(N2CCN(CCCCCCCSc3nnc(N)s3)CC2)c1` [Example 49], for which, on human D3 receptor, the Ki was found to be 6.5 nM and the “Selectivity Ki D2 /Ki D3” value came to 86. The compound further showed an inhibition constant Ki on D2 receptor of 560 nM.

For the compound `N#Cc1cccc(N2CCN(CCCCCCCCSc3nnc(N)s3)CC2)c1` [Example 51], on human D3 receptor, the Ki was 8.3 nM and the “Selectivity Ki D2 /Ki D3” value is 62. On D2 receptor, this compound displayed a Ki of 500 nM.

For `Nc1nnc(SCC=CCN2CCN(c3cccc(C(F)(F)F)n3)CC2)s1` [Example 53], at human D3 receptor, the Ki was found to be 2.95 nM and the “Selectivity Ki D2 /Ki D3” value stood at 50. The Ki at D2 receptor was 145 nM.

For `Cc1cc(N2CCN(CCCSc3nnc(N)s3)CC2)nc(-n2cccc2)n1` [Example 56], the figures for the inhibition constant (Ki) on human D3 receptor and on D2 receptor were 27 nM and 3500 nM, respectively. At human D3 receptor, the “Selectivity Ki D2 /Ki D3” value is 70.

Consider `CC(C)(C)c1cc(N2CCN(CCCSc3nnc(N)s3)CC2)nc(C(C)(C)C)n1` [Example 58], for which, on human D3 receptor, the inhibition constant Ki is 1.7 nM and the “Selectivity Ki D2 /Ki D3” value turned out to be 132. This compound registered a Ki on D2 receptor of 225 nM.

(Values after patent US5958923A, “Use of thiazole and thiadiazole compounds” (BASF Aktiengesellschaft, priority 1994, dated 1999).)
